The results in this text go back to patent US20090312288A1 (TAKEDA PHARMACEUTICAL COMPANY LIMITED, priority 2008, published 2009).

Aurora B/INCENP, sequence (Q96GD4 whole entry): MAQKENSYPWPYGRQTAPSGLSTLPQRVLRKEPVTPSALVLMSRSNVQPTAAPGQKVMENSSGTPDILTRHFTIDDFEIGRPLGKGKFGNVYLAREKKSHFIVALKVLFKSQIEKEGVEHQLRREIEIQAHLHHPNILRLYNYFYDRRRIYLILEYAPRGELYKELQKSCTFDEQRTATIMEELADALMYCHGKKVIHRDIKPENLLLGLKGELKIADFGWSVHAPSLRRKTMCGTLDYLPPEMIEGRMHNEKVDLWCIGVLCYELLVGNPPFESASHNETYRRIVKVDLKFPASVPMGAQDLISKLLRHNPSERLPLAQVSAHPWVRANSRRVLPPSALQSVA
Aurora B/INCENP, sequence (Q9NQS7 whole entry partner): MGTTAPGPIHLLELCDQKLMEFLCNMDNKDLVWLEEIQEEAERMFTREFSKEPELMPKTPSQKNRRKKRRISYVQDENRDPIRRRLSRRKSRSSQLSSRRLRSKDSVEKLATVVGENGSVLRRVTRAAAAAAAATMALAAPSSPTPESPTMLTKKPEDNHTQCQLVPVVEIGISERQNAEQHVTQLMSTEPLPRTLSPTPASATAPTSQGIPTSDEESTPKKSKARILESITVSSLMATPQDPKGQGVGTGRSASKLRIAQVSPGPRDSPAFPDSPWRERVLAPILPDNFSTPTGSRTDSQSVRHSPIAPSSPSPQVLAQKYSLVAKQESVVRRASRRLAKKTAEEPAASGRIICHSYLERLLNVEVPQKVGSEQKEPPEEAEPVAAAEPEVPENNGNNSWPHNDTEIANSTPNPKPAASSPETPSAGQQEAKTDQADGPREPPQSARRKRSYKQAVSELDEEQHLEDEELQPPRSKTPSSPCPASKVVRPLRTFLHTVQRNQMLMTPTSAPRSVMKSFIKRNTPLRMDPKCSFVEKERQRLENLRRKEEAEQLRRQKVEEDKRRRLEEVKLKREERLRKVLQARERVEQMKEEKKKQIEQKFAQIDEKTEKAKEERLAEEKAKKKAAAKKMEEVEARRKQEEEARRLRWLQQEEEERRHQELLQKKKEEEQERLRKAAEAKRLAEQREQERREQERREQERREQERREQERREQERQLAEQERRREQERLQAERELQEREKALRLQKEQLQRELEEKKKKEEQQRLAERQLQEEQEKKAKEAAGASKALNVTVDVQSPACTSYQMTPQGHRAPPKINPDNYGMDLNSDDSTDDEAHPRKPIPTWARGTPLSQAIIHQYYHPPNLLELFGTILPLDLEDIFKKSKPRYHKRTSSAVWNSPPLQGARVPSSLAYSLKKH

The assay has as its target Aurora B/INCENP (Homo sapiens, UniProt Q96GD4). Kind of assay: Determination of inhibition of AIK: Aurora B/INCENP direct fluorescence polarization (IMAP) assay. Type of assay: biochemical. The conditions noted are these: 10 uM ATP, 0.8 nM Aurora B/INCENP; values given as bins; read-out: IC50 of Exemplified Compounds Against AIK B. The protocol:
Detection of the reaction product is performed by addition of Progressive IMAP binding reagent (Molecular Devices). Reaction product may be determined quantitatively by FP using an Analyst HT plate reader (Molecular Devices) with an excitation wavelength at 485 nm and emission at 530 nm and using a Fluorescein 505 dichroic mirror.
The assay reaction may be initiated as follows: 2 ul of (3×) 300 nM Fl-Peptide/30 uM ATP was added to each well of the plate, followed by the addition of 2 ul of (3×) inhibitor (2 fold serial dilutions for 11 data points for each inhibitor) containing 15% DMSO. Two microliters of (3×) 2.4 nM AuroraB/INCENP solution may be added to initiate the reaction (final enzyme concentration was 0.8 nM for Aurora B/INCENP). The reaction mixture may then be incubated at room temperature for 45 min, and quenched and developed by addition of 20 ul of 1 to 400 diluted Progressive IMAP binding reagent in 1× proprietary Progressive IMAP binding buffer A. Fluorescence polarization readings of the resulting reaction mixtures may be measured after a 60-minute incubation at room temperature.
IC50 values may be calculated by non-linear curve fitting of the compound concentrations and fluorescent polarization values to the standard IC50 equation.
(In fluorescence polarisation assays a small probe gives low polarisation when free and higher when bound to something large.)
With `CCS(=O)(=O)c1cccc(-c2cnc(OCCOC(=O)[C@@H](N)C(C)C)c3[nH]c4ncc(C)cc4c23)c1` [Compound 64, L-Valine-2-[5-(3-ethanesulfonyl-phenyl)-3-methyl-9H-dipyrido[2,3-b;4′,3′-d]pyrrol-8-yloxy]-ethyl ester], the concentration for half-maximal inhibition (IC50) – broadly, the concentration that inhibits the measured activity by half – lay in the range of 5.6 to 8.5 nM.

With `CCS(=O)(=O)c1cccc(-c2cnc(OC[C@@H](C)OC(=O)[C@H](C)N)c3[nH]c4ncc(C)cc4c23)c1` [Compound 65, L-Alanine-(R)-2-[5-(3-ethanesulfonyl-phenyl)-3-methyl-9H-dipyrido[2,3-b;4′,3′-d]pyrrol-8-yloxy]-1-methyl-ethyl ester], the IC50 was in the range of 8.6 to 13 nM.

Regarding `CCS(=O)(=O)c1cccc(-c2cnc(OCC3CCN(C)CC3)c3[nH]c4ncc(Cl)cc4c23)c1` [Compound 72, 3-Chloro-5-(3-ethanesulfonyl-phenyl)-8-(1-methyl-piperidin-4-ylmethoxy)-9H-dipyrido[2,3-b;4′,3′-d]pyrrole], the half-inhibitory concentration (IC50) was under 4 nM.

Consider `CCS(=O)(=O)c1cccc(-c2cnc(OC[C@@H](C)O)c3[nH]c4ncc(Cl)cc4c23)c1` [Compound 73, (R)-1-[3-Chloro-5-(3-ethanesulfonyl-phenyl)-9H-dipyrido[2,3-b;4′,3′-d]pyrrol-8-yloxy]-propan-2-ol], for which the concentration for half-maximal inhibition (IC50) was under 4 nM.

Regarding `CCS(=O)(=O)c1cccc(-c2cnc(NC)c3[nH]c4ncc(C)cc4c23)c1` [Compound 74, 2-[5-(3-Ethanesulfonyl-phenyl)-3-methyl-9H-dipyrido[2,3-b;4′,3′-d]pyrrol-8-yl]methyl amine], the IC50 is under 4 nM.

As to `CCS(=O)(=O)c1cccc(-c2cnc(SC)c3[nH]c4ncc(C)cc4c23)c1` [Compound 75], the IC50 was under 4 nM.

For the compound `CCSc1ncc(-c2cccc(S(=O)(=O)CC)c2)c2c1[nH]c1ncc(C)cc12` [Compound 76], the 50% inhibitory concentration (IC50) is 5.6 to 8.5 nM.

`CCSc1ncc(-c2cccc(NC(=O)C3CC3)c2)c2c1[nH]c1ncc(C)cc12` [Compound 79]: the IC50 is over 13 nM.

With `CCS(=O)(=O)c1cccc(-c2cc(C(=O)NC3CCN(C)CC3)c(C)c3[nH]c4ncc(C)cc4c23)c1` [Compound 88, 5-(3-(ethylsulfonyl)phenyl)-3,8-dimethyl-N-(1-methylpiperidin-4-yl)-9H-pyrido[2,3-b]indole-7-carboxamide], the 50% inhibitory concentration (IC50) lay in the range of 8.6 to 13 nM.

On to `CCS(=O)(=O)c1cccc(-c2cc(C(=O)NCCNC)c(C)c3[nH]c4ncc(C)cc4c23)c1` [Compound 89, N-(2-(methylamino)ethyl)-5-(3-(ethylsulfonyl)phenyl)-3,8-dimethyl-9H-pyrido[2,3-b]indole-7-carboxamide], for which the IC50 is 8.6 to 13 nM.

In the case of `CCS(=O)(=O)c1cccc(-c2cc(C(=O)NCCOC)c(C)c3[nH]c4ncc(C)cc4c23)c1` [Compound 90, N-(2-(methoxy)ethyl)-5-(3-(ethylsulfonyl)phenyl)-3,8-dimethyl-9H-pyrido[2,3-b]indole-7-carboxamide], the 50% inhibitory concentration (IC50) lay within 5.6 to 8.5 nM.

With `CCS(=O)(=O)c1cccc(-c2cc(C(=O)N(C)CCN(C)C)c(C)c3[nH]c4ncc(C)cc4c23)c1` [Compound 91, N-(2-(dimethylamino)ethyl)-N-methyl-5-(3-(ethylsulfonyl)phenyl)-3,8-dimethyl-9H-pyrido[2,3-b]indole-7-carboxamide], the half-maximal inhibitory concentration (IC50) is over 13 nM.

Take `CCS(=O)(=O)c1cccc(-c2cc(C(=O)N(C)C)c(C)c3[nH]c4ncc(C)cc4c23)c1` [Compound 92, N,N-dimethyl-5-(3-(ethylsulfonyl)phenyl)-3,8-dimethyl-9H-pyrido[2,3-b]indole-7-methylcarboxamide]: the concentration for half-maximal inhibition (IC50) was in the range of 5.6 to 8.5 nM.

On to `CCS(=O)(=O)c1cccc(-c2cc(C(=O)N3CCN(C)CC3)c(C)c3[nH]c4ncc(C)cc4c23)c1` [Compound 93], for which the IC50 is over 13 nM.

`CCS(=O)(=O)c1cccc(-c2cc(C(=O)NCCN3CCNCC3)c(C)c3[nH]c4ncc(C)cc4c23)c1` [Compound 94]: the IC50 is over 13 nM.

Take `CCS(=O)(=O)c1cccc(-c2cc(C(=O)NCCCN3CCN(C)CC3)c(C)c3[nH]c4ncc(C)cc4c23)c1` [Compound 95, 5-(3-(ethylsulfonyl)phenyl)-3,8-dimethyl-N-(3-(4-methylpiperazin-1-yl)propyl)-9H-pyrido[2,3-b]indole-7-carboxamide]: the IC50 is over 13 nM.

As to `CCS(=O)(=O)c1cccc(-c2cc(C(=O)N3CCOCC3)c(C)c3[nH]c4ncc(C)cc4c23)c1` [Compound 96], the IC50 lay in the range of 8.6 to 13 nM.

Turning to `CCS(=O)(=O)c1cccc(-c2cc(C(=O)N3CCC3)c(C)c3[nH]c4ncc(C)cc4c23)c1` [Compound 97, azetidin-1-yl(5-(3-(ethylsulfonyl)phenyl)-3,8-dimethyl-9H-pyrido[2,3-b]indol-7-yl)methanone], the half-inhibitory concentration (IC50) was over 13 nM.

With `CCS(=O)(=O)c1cccc(-c2cc(C(=O)N3CCSC3)c(C)c3[nH]c4ncc(C)cc4c23)c1` [Compound 98, (5-(3-(ethylsulfonyl)phenyl)-3,8-dimethyl-9H-pyrido[2,3-b]indol-7-yl)(thaiazolidin-3-yl)methanone], the IC50 lay in the range of 5.6 to 8.5 nM.

`CCS(=O)(=O)c1cccc(-c2cc(C(=O)NC[C@@H](C)O)c(C)c3[nH]c4ncc(C)cc4c23)c1` [Compound 99, (R)-5-(3-(ethylsulfonyl)phenyl)-N-(2-hydroxypropyl)-3,8-dimethyl-9H-pyrido[2,3-b]indole-7-carboxamide]: the half-maximal inhibitory concentration (IC50) fell in the range of 8.6 to 13 nM.

On to `CCS(=O)(=O)c1cccc(-c2cc(C(=O)NC[C@H](C)O)c(C)c3[nH]c4ncc(C)cc4c23)c1` [Compound 100, (S)-5-(3-(ethylsulfonyl)phenyl)-N-(2-hydroxypropyl)-3,8-dimethyl-9H-pyrido[2,3-b]indole-7-carboxamide], for which the half-maximal inhibitory concentration (IC50) was 4 to 5.5 nM.

As to `CCS(=O)(=O)c1cccc(-c2cc(C(=O)NCCO)c(C)c3[nH]c4ncc(C)cc4c23)c1` [Compound 101, 5-(3-(ethylsulfonyl)phenyl)-N-(2-hydroxyethyl)-3,8-dimethyl-9H-pyrido[2,3-b]indole-7-carboxamide], the concentration for half-maximal inhibition (IC50) was in the range of 4 to 5.5 nM.

In the case of `CCS(=O)(=O)c1cccc(-c2cc(C(=O)NCC(O)CO)c(C)c3[nH]c4ncc(C)cc4c23)c1` (stereo not shown) [Compound 102, N-(2,3-dihydroxypropyl)-5-(3-(ethylsulfonyl)phenyl)-3,8-dimethyl-9H-pyrido[2,3-b]indole-7-carboxamide], the concentration for half-maximal inhibition (IC50) lay within 4 to 5.5 nM.

For the compound `CCS(=O)(=O)c1cccc(-c2cc(C(=O)NCC(C)(C)O)c(C)c3[nH]c4ncc(C)cc4c23)c1` [Compound 103, 5-(3-(ethylsulfonyl)phenyl)-N-(2-hydroxy-2-methylpropyl)-3,8-dimethyl-9H-pyrido[2,3-b]indole-7-carboxamide], the 50% inhibitory concentration (IC50) lay within 8.6 to 13 nM.

As to `CCS(=O)(=O)c1cccc(-c2cc(C(=O)NC3CCN(C(C)C)CC3)c(C)c3[nH]c4ncc(C)cc4c23)c1` [Compound 104, 5-(3-(ethylsulfonyl)phenyl)-N-(1-isopropylpiperidin-4-yl)-3,8-dimethyl-9H-pyrido[2,3-b]indole-7-carboxamide], the concentration for half-maximal inhibition (IC50) lay in the range of 8.6 to 13 nM.

For the compound `CCN1CCC(NC(=O)c2cc(-c3cccc(S(=O)(=O)CC)c3)c3c([nH]c4ncc(C)cc43)c2C)CC1` [Compound 105, N-(1-ethylpiperidin-4-yl)-5-(3-(ethylsulfonyl)phenyl)-3,8-dimethyl-9H-pyrido[2,3-b]indole-7-carboxamide], the 50% inhibitory concentration (IC50) was over 13 nM.

With `CCS(=O)(=O)c1cccc(-c2cc(C(=O)Nc3nccs3)c(C)c3[nH]c4ncc(C)cc4c23)c1` [Compound 106], the 50% inhibitory concentration (IC50) was 5.6 to 8.5 nM.

In the case of `CCS(=O)(=O)c1cccc(-c2cc(C(=O)NCCOCC(F)(F)F)c(C)c3[nH]c4ncc(C)cc4c23)c1` [Compound 107], the IC50 fell in the range of 8.6 to 13 nM.

In the case of `CCS(=O)(=O)c1cccc(-c2cc(C(=O)N[C@@H]3CCCNC3)c(C)c3[nH]c4ncc(C)cc4c23)c1` [Compound 108, (R)-5-(3-(ethylsulfonyl)phenyl)-3,8-dimethyl-N-(piperidin-3-yl)-9H-pyrido[2,3-b]indole-7-carboxamide], the 50% inhibitory concentration (IC50) is over 13 nM.

`CCS(=O)(=O)c1cccc(-c2cc(C(=O)NCCOCCO)c(C)c3[nH]c4ncc(C)cc4c23)c1` [Compound 111]: the 50% inhibitory concentration (IC50) lay within 5.6 to 8.5 nM.

Regarding `CCS(=O)(=O)c1cccc(-c2cc(C(=O)NCCN(C)C)c(C)c3[nH]c4ncc(C)cc4c23)c1` [Compound 113], the concentration for half-maximal inhibition (IC50) fell in the range of 8.6 to 13 nM.

Regarding `CCS(=O)(=O)c1cccc(-c2cc(C(=O)NCC3CCN(C)CC3)c(C)c3[nH]c4ncc(C)cc4c23)c1` [Compound 114, 5-(3-(ethylsulfonyl)phenyl)-3,8-dimethyl-N-((1-methylpiperidin-4-yl)methyl)-9H-pyrido[2,3-b]indole-7-carboxamide], the concentration for half-maximal inhibition (IC50) lay in the range of 5.6 to 8.5 nM.

Consider `CCS(=O)(=O)c1cccc(-c2cc(C(=O)NCCCN(C)C)c(C)c3[nH]c4ncc(C)cc4c23)c1` [Compound 115, N-(3-(dimethylamino)propyl)-5-(3-(ethylsulfonyl)phenyl)-3,8-dimethyl-9H-pyrido[2,3-b]indole-7-carboxamide], for which the half-inhibitory concentration (IC50) fell in the range of 8.6 to 13 nM.

As to `CCS(=O)(=O)c1cccc(-c2cc(C(=O)NCCN3CCCC3)c(C)c3[nH]c4ncc(C)cc4c23)c1` [Compound 116, 5-(3-(ethylsulfonyl)phenyl)-3,8-dimethyl-N-(2-(pyrrolidin-1-yl)ethyl)-9H-pyrido[2,3-b]indole-7-carboxamide], the 50% inhibitory concentration (IC50) lay within 8.6 to 13 nM.
